Structures can show the parent of a compound that is named as a salt. Where only a bound is given, the exact number is not on record here.

For one experiment, the system named is recombinant NL4-3 virus (Renilla luciferase in nef, Gag P373S). Description: HIV Cell Culture Assay (luciferase reporter virus in MT-2 cells). The class given is cell-based. The following applies: NL43. As for the experimental part: MT-2 cells and 293T cells were obtained from the NIH AIDS Research and Reference Reagent Program. MT-2 cells were propagated in RPMI 1640 media supplemented with 10% heat inactivated fetal bovine serum, […]. The 293T cells were propagated in DMEM media supplemented with 10% heat inactivated fetal bovine serum (FBS), 100 units/ml penicillin G and 100 μg/ml streptomycin. The proviral DNA clone of NL4-3 was obtained from the NIH AIDS Research and Reference Reagent Program. A recombinant NL4-3 virus, in which a section of the nef gene from NL4-3 was replaced with the Renilla luciferase gene, was used as a reference virus. In addition, residue Gag P373 was converted to P373S. Briefly, the recombinant virus was prepared by transfection of the altered proviral clone of NL4-3. Transfections were performed in 293T cells using LipofectAMINE PLUS from Invitrogen (Carlsbad, Calif.), according to manufacturer's instruction. The virus was titered in MT-2 cells using luciferase enzyme activity as a marker. Luciferase was quantitated using the Dual Luciferase kit from Promega (Madison, Wis.), with modifications to the manufacturer's protocol. The diluted Passive Lysis solution was pre-mixed with the re-suspended Luciferase Assay Reagent and the re-suspended Stop & Glo Substrate (2:1:1 ratio). Fifty (50) μL of the mixture was added to each aspirated well on assay plates and luciferase activity was measured immediately on a Wallac TriLux (Perkin-Elmer). Antiviral activities of inhibitors toward the recombinant virus were quantified by measuring luciferase activity in cells infected for 4-5 days with NLRluc recombinants in the presence serial dilutions of the inhibitor. Table 1 is the key for the data in Table 2.
For orientation: Reporter assays use an easily measured gene product as a stand-in for the process of interest.
With `C=C(C)[C@@H]1CC[C@]2(C(=O)N[C@@H](C)C(=O)O)CC[C@]3(C)[C@H](CC[C@@H]4[C@@]5(C)CC=C(c6ccc(C(=O)O)cc6)C(C)(C)[C@@H]5CC[C@]43C)[C@@H]12` [Example 57, 4-((1R,3aS,5aR,5bR,7aR,11aS,11bR,13aR,13bR)-3a-((S)-1-carboxyethylcarbamoyl)-5a,5b,8,8,11a-pentamethyl-1-(prop-1-en-2-yl)-2,3,3a,4,5,5a,5b,6,7,7a,8,11,11a,11b,12,13,13a,13b-octadecahydro-1H-cyclopenta[a]chrysen-9-yl)benzoic acid], the EC50 – broadly, the concentration at which the effect is half-maximal – is 700 nM.
The same measure, in the same setting: next, `C=C(C)[C@@H]1CC[C@]2(C(=O)NCCN3CCS(=O)(=O)CC3)CC[C@]3(C)[C@H](CC[C@@H]4[C@@]5(C)CC=C(c6ccc(B(O)O)cc6)C(C)(C)[C@@H]5CC[C@]43C)[C@@H]12` [Example 130, (4-((1R,3aS,5aR,5bR,7aR,11aS,11bR,13aR,13bR)-3a-((2-(1,1-dioxidothiomorpholino)ethyl)carbamoyl)-5a,5b,8,8,11a-pentamethyl-1-(prop-1-en-2-yl)-2,3,3a,4,5,5a,5b,6,7,7a,8,11,11a,11b,12,13,13a,13b-octadecahydro-1H-cyclopenta[a]chrysen-9-yl)phenyl)boronic acid, TFA]: 13.4 nM.

Still in this experiment, the particulars now being: NL43, read-out: EC50 Group.
In the case of `C=C(C)[C@@H]1CC[C@]2(C(=O)NCCN(CC)CCCC(=O)O)CC[C@]3(C)[C@H](CC[C@@H]4[C@@]5(C)CC=C(c6ccc(C(=O)O)cc6)C(C)(C)[C@@H]5CC[C@]43C)[C@@H]12` [Example 103, 4-((1R,3aS,5aR,5bR,7aR,11aS,11bR,13aR,13bR)-3a-(2-((3-carboxypropyl)(ethyl)amino)ethylcarbamoyl)-5a,5b,8,8,11a-pentamethyl-1-(prop-1-en-2-yl)-2,3,3a,4,5,5a,5b,6,7,7a,8,11,11a,11b,12,13,13a,13b-octadecahydro-1H-cyclopenta[a]chrysen-9-yl)benzoic acid], the EC50 is less than 100 nM.
The same measure, in the same setting: next, `C=C(C)[C@@H]1CC[C@]2(C(=O)NCCN(C)CCOC(=O)CCC(=O)O)CC[C@]3(C)[C@H](CC[C@@H]4[C@@]5(C)CC=C(c6ccc(C(=O)O)cc6)C(C)(C)[C@@H]5CC[C@]43C)[C@@H]12` [Example 115, 4-((1R,3aS,5aR,5bR,7aR,11aS,11bR,13aR,13bR)-3a-(2-((2-(3-carboxypropanoyloxy)ethyl)(methyl)amino)ethylcarbamoyl)-5a,5b,8,8,11a-pentamethyl-1-(prop-1-en-2-yl)-2,3,3a,4,5,5a,5b,6,7,7a,8,11,11a,11b,12,13,13a,13b-octadecahydro-1H-cyclopenta[a]chrysen-9-yl)benzoic acid]: less than 100 nM; `C=C(C)[C@@H]1CC[C@]2(C(=O)NCCN(CC(=O)O)c3ccccc3)CC[C@]3(C)[C@H](CC[C@@H]4[C@@]5(C)CC=C(c6ccc(C(=O)O)cc6)C(C)(C)[C@@H]5CC[C@]43C)[C@@H]12` [Example 111, 4-((1R,3aS,5aR,5bR,7aR,11aS,11bR,13aR,13bR)-3a-(2-((carboxymethyl)(phenyl)amino)ethylcarbamoyl)-5a,5b,8,8,11a-pentamethyl-1-(prop-1-en-2-yl)-2,3,3a,4,5,5a,5b,6,7,7a,8,11,11a,11b,12,13,13a,13b-octadecahydro-1H-cyclopenta[a]chrysen-9-yl)benzoic acid]: less than 100 nM.
Consider `C=C(C)[C@@H]1CC[C@]2(C(=O)NCCCn3ccnc3)CC[C@]3(C)[C@H](CC[C@@H]4[C@@]5(C)CC=C(c6ccc(C(=O)O)cc6)C(C)(C)[C@@H]5CC[C@]43C)[C@@H]12` [Example 86, 4-((1R,3aS,5aR,5bR,7aR,11aS,11bR,13aR,13bR)-3a-(3-(1H-imidazol-1-yl)propylcarbamoyl)-5a,5b,8,8,11a-pentamethyl-1-(prop-1-en-2-yl)-2,3,3a,4,5,5a,5b,6,7,7a,8,11,11a,11b,12,13,13a,13b-octadecahydro-1H-cyclopenta[a]chrysen-9-yl)benzoic acid], for which the EC50 was less than 100 nM.
The same measure, in the same setting: the result for `C=C(C)[C@@H]1CC[C@]2(C(=O)N(C)CCN(C)C)CC[C@]3(C)[C@H](CC[C@@H]4[C@@]5(C)CC=C(c6ccc(C(=O)O)cc6)C(C)(C)[C@@H]5CC[C@]43C)[C@@H]12` [Example 31, 4-((1R,3aS,5aR,5bR,7aR,11aS,11bR,13aR,13bR)-3a-((2-(dimethylamino)ethyl)(methyl)carbamoyl)-5a,5b,8,8,11a-pentamethyl-1-(prop-1-en-2-yl)-2,3,3a,4,5,5a,5b,6,7,7a,8,11,11a,11b,12,13,13a,13b-octadecahydro-1H-cyclopenta[a]chrysen-9-yl)benzoic acid] reads less than 100 nM.
With `C=C(C)[C@@H]1CC[C@]2(C(=O)Nc3ncc(C(=O)O)s3)CC[C@]3(C)[C@H](CC[C@@H]4[C@@]5(C)CC=C(c6ccc(C(=O)O)cc6)C(C)(C)[C@@H]5CC[C@]43C)[C@@H]12` [Example 50, 2-((1R,3aS,5aR,5bR,7aR,11aS,11bR,13aR,13bR)-9-(4-carboxyphenyl)-5a,5b,8,8,11a-pentamethyl-1-(prop-1-en-2-yl)-2,3,3a,4,5,5a,5b,6,7,7a,8,11,11a,11b,12,13,13a,13b-octadecahydro-1H-cyclopenta[a]chrysene-3a-carboxamido)thiazole-5-carboxylic acid], the 50% effective concentration (EC50) was less than 100 nM.
On the same count and under the same terms, the result for `C=C(C)[C@@H]1CC[C@]2(C(=O)NCCN(CCC)CCC(=O)O)CC[C@]3(C)[C@H](CC[C@@H]4[C@@]5(C)CC=C(c6ccc(C(=O)O)cc6)C(C)(C)[C@@H]5CC[C@]43C)[C@@H]12` [Example 93, 4-((1R,3aS,5aR,5bR,7aR,11aS,11bR,13aR,13bR)-3a-(2-((2-carboxyethyl)(propyl)amino)ethylcarbamoyl)-5a,5b,8,8,11a-pentamethyl-1-(prop-1-en-2-yl)-2,3,3a,4,5,5a,5b,6,7,7a,8,11,11a,11b,12,13,13a,13b-octadecahydro-1H-cyclopenta[a]chrysen-9-yl)benzoic acid] reads less than 100 nM; that for `C=C(C)[C@@H]1CC[C@]2(C(=O)NCCNCCO)CC[C@]3(C)[C@H](CC[C@@H]4[C@@]5(C)CC=C(c6ccc(C(=O)O)cc6)C(C)(C)[C@@H]5CC[C@]43C)[C@@H]12` [Example 74, 4-((1R,3aS,5aR,5bR,7aR,11aS,11bR,13aR,13bR)-3a-(2-(2-hydroxyethylamino)ethylcarbamoyl)-5a,5b,8,8,11a-pentamethyl-1-(prop-1-en-2-yl)-2,3,3a,4,5,5a,5b,6,7,7a,8,11,11a,11b,12,13,13a,13b-octadecahydro-1H-cyclopenta[a]chrysen-9-yl)benzoic acid], less than 100 nM.
As for `C=C(C)[C@@H]1CC[C@]2(C(=O)NCCN(C)CCO)CC[C@]3(C)[C@H](CC[C@@H]4[C@@]5(C)CC=C(c6ccc(C(=O)O)cc6)C(C)(C)[C@@H]5CC[C@]43C)[C@@H]12` [Example 73, 4-((1R,3aS,5aR,5bR,7aR,11aS,11bR,13aR,13bR)-3a-(2-((2-hydroxyethyl)(methyl)amino)ethylcarbamoyl)-5a,5b,8,8,11a-pentamethyl-1-(prop-1-en-2-yl)-2,3,3a,4,5,5a,5b,6,7,7a,8,11,11a,11b,12,13,13a,13b-octadecahydro-1H-cyclopenta[a]chrysen-9-yl)benzoic acid], the EC50 is less than 100 nM.
On the same count and under the same terms, next, `C=C(C)[C@@H]1CC[C@]2(C(=O)Nc3ncc(C)s3)CC[C@]3(C)[C@H](CC[C@@H]4[C@@]5(C)CC=C(c6ccc(C(=O)O)cc6)C(C)(C)[C@@H]5CC[C@]43C)[C@@H]12` [Example 48, 4-((1R,3aS,5aR,5bR,7aR,11aS,11bR,13aR,13bR)-5a,5b,8,8,11a-pentamethyl-3a-(5-methylthiazol-2-ylcarbamoyl)-1-(prop-1-en-2-yl)-2,3,3a,4,5,5a,5b,6,7,7a,8,11,11a,11b,12,13,13a,13b-octadecahydro-1H-cyclopenta[a]chrysen-9-yl)benzoic acid]: less than 100 nM; `C=C(C)[C@@H]1CC[C@]2(C(=O)N3CCN(C)CC3)CC[C@]3(C)[C@H](CC[C@@H]4[C@@]5(C)CC=C(c6ccc(C(=O)O)cc6)C(C)(C)[C@@H]5CC[C@]43C)[C@@H]12` [Example 10, 4-((1R,3aS,5aR,5bR,7aR,11aS,11bR,13aR,13bR)-5a,5b,8,8,11a-pentamethyl-3a-(4-methylpiperazine-1-carbonyl)-1-(prop-1-en-2-yl)-2,3,3a,4,5,5a,5b,6,7,7a,8,11,11a,11b,12,13,13a,13b-octadecahydro-1H-cyclopenta[a]chrysen-9-yl)benzoic acid]: less than 100 nM.
On the same count and under the same terms, next, `CC(C)[C@@H]1CC[C@]2(C(=O)NCCN(C)C)CC[C@]3(C)[C@H](CC[C@@H]4[C@@]5(C)CC[C@H](c6ccc(C(=O)O)cc6)C(C)(C)[C@@H]5CC[C@]43C)[C@@H]12` [Example 55, 4-((1S,3aS,5aR,5bR,7aS,9S,11aS,11bR,13aR,13bR)-3a-(2-(dimethylamino)ethylcarbamoyl)-1-isopropyl-5a,5b,8,8,11a-pentamethylicosahydro-1H-cyclopenta[a]chrysen-9-yl)benzoic acid]: less than 100 nM.

(Values after patent US8802661B2, “C-28 amides of modified C-3 betulinic acid derivatives as HIV maturation inhibitors” (priority 2010, dated 2014).)
